Where “and” joins values, the source holds several entries; their conditions need not be identical. Equal values may be shown once. Read-outs that look alike come from different tables or passages of the source.
Legend:
[1] = target: T1, NLK (Homo sapiens, UniProt Q9UBE8); assay: NLK in vitro kinase assay (NLK, c-Myb, Raptor substrates); format: biochemical; details: for inhibition of NLK-mediated phosphorylation of NLK substrates NLK, c-Myb and Raptor: added to activated NLK in vitro, Supplementary Fig. 1c
T1 construct: NLK, p38, or ALK5 for in vitro kinase assays were immunopurified from Kp53A1 cells; endogenous in cells; immunoprecipitated with anti-NLK (Abcam AB97642)
T1 sequence (Q9UBE8 1-527): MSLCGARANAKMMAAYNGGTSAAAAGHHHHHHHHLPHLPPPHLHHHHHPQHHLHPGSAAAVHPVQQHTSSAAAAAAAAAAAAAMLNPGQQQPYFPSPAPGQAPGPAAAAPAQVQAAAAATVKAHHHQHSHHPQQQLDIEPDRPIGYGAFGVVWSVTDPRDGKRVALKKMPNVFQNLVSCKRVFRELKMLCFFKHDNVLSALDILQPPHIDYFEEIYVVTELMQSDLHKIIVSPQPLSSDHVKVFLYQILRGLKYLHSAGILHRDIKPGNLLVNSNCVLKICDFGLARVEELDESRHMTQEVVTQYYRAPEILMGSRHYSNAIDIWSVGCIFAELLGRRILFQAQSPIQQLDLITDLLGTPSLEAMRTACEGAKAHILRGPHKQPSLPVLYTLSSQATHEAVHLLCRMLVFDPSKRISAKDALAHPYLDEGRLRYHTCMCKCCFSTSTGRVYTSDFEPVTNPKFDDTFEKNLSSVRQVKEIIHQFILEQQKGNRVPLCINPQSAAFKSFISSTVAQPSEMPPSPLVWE
Description: Equivalent protein was loaded between samples. b—blue Transduced progenitors were differentiated for 15 days and sorted for surface expression of CD235 + , CD41 + and CD11b + population NLK mRNA was assessed by qRT-PCR. c Control and shRPS19-transduced CB progenitors were differentiated for 10 days prior to separation into CD71^+ and CD71^- populations and assessed for pThr298-NLK phosphorylation by Western blot analysis. d—purple CB CD34 + progenitors were transduced with shRNA against luciferase (shLuc) or RPS19 (shRPS19) along with CFP-NLK and YFP-NLK and differentiated for 10 days. NLK dimerization was quantified by FRET. e—left panel NLK was immunoprecipitated from transduced differentiating CD71^+ and CD71^- populations after 10 days, and incubated in the presence of ATP, Mg^2+ and dephosphorylated NLK (i orange), c-Myb (ii—blue) and Raptor (iii—green) for 30 min at 37 °C. Phosphorylation was detected by a combination of anti^-phosphoserine-HRP and anti-phosphothreonine-HRP antibodies, or mouse anti-phosphoserine and anti-mouse-HRP antibodies. e—right panel For comparison, NLK in vitro kinase activity was assessed from CD235^+, CD41^+ and CD11b^+ populations enriched after identical treatments. f A panel of eight small molecule p38 inhibitors were titrated into in vitro kinase assays in the presence of activated NLK or p38 from stimulated Kp53A1 cells. The IC50 for NLK and p38 for each compound was calculated. The data are represented diagrammatically with IC50 values represented as vertical lines along a concentration gradient for NLK and p38. Kinase activity is represented as blue and the extent of inhibition is depicted in white. […] Bars represent means ± SD with individual data points overlaid. n = 3 independent experiments performed in triplicate.Statistics: two-tailed Student’s t test, significant *p < 0.05. Also see Supplementary Figs. 3 and 4. Source data are provided as a Source Data file. […] Inhibitors were added to cells at indicated concentrations with a final DMSO concentration of 0.5%. […] IC50 calculations were obtained using 8–9 concentrations of compound and generated using the IC50 Calculator software by AAT Bioquest®. NLK, p38, or ALK5 for in vitro kinase assays were immunopurified from Kp53A1 cells. NLK activation was induced by incubating cells at 32° for 24-48 h, p38 by stimulating with IL-3, IL-6, SCF, and Epo at the same concentrations used for differentiating erythroid progenitors.
For NLK kinase analysis, cultures were treated as indicated and lysed for 30 min at 4 °C in 750 μl of kinase lysis buffer (50 mM Tris [pH 7.4], 5 mM EDTA, 250 mM NaCl, 0.1% Triton X-100, 50 mM NaF, 0.1 trypsin inhibitor unit of aprotinin per ml, 50 μg of phenylmethylsulfonyl fluoride per ml, 100 μM sodium vanadate, 1 μg of leupeptin per ml). For TGFβR1 kinase analysis, cells were lysed in membrane kinase buffer (10 mM Tris-HCl (pH8.0), 140 mM NaCl, 300 mM KCl, 0.5% Triton X-100, and 0.5% sodium deoxycholate with complete protease inhibitor cocktail (Roche)). Extracts were clarified, and equivalent protein was incubated overnight at 4 °C with antibody (NLK: #AB97642; Abcam, TGFβR1: V22; Santa Cruz Biotechnology). Immune complexes were collected with Catch and Release® V2.0 Reversible Immunoprecipitation System and diluted in kinase buffer (25 mM Tris [pH 7.4], 10 mM MgCl2, 1 mM dithiothreitol). When cell numbers were limiting, NLK activity was amplified by adding 0.5 µg dephosphorylated NLK prior to performing kinase reaction. 50 μl of kinase buffer containing NLK or TGFβR1 sample and 5 μM ATP was incubated in the presence of biotinylated substrate (NLK, c-Myb, or Raptor for NLK and Smad2 or Smad3 for TGFβR1) immobilized on streptavidin-coated 96-well plates.

[2] = test system: p38; assay: DiscoveRX kinase profile analysis of SD208, p38; format: biochemical; details: 10 µM; kinase profiling; Supplementary Fig. 2a
[3] = test system: RPS19-insufficient Lin-Kit+ cells; assay: Erythroid differentiation (Ter119+) of Lin-Kit+ cells from tetracycline-inducible shRPS19 mice; format: cell-based, mouse; details: SD208 with doxycycline; 8 days; three mice; without SD208 24.3, 20.3, 18.5%; Fig. 8b
Description: Cells were counted and assessed for cell surface expression of CD235. b Lin-Kit^+ hematopoietic progenitors were obtained from three mouse embryos expressing tetracycline-inducible shRNA against RPS19 at day E14.5 or three untreated mice, and thee mature RPL11^+/+ or three mature RPL11^+/lox mice treated with tamoxifen for eight weeks. […] Values were expressed as a percentage relative to untreated controls. c, d Intracellular phosphorylation of NLK at […] was determined by capillary electrophoresis using the Peggy SueTM Automated Western blotting platform. […] After counting the total cell population, the ratio of CD235^+ erythroblasts was determined by flow cytometry and number of CD235^+ erythroblasts calculated. This was expressed as a percentage of the average number of erythroid cells present in untreated healthy controls. f NLK phosphorylation was assessed by capillary electrophoresis as above. Bars represent means ± SD with individual data points overlaid. […] Statistics: two-tailed Student's t test, significant *p < 0.05. Also see Supplementary Fig. 8. Source data are provided as a Source Data file. […] RPS19-insufficiency reduced Ter119^+ erythroblasts to 24.3, 20.3, and 18.5% of controls differentiated in the absence of doxycycline.

[4] = test system: p38; details: reported, no reference given; read-out: reported IC50 against p38; cited from earlier work
[5] = authors' statement in rebuttal, no data or reference; cited from earlier work

With Fc1ccc(Cl)cc1-c1nc(Nc2ccncc2)c2nccnc2n1 [SD208] the IC50 [1] was 0.435 µM, the “inhibition of NLK-mediated phosphorylation of NLK substrates NLK, c-Myb and Raptor” value [1] was ~ 80% and the “SD208 concentration at which NLK activation was significantly inhibited in in vitro assays” value ([1]; rebuttal letter) was “below 0.1 uM”. The “inhibition of p38 kinase activity” value [2] was 99.6%, the “Ter119+ erythroblasts, % of controls differentiated without doxycycline” value [3] was 83.2% and 81.1% and 76.6% and the IC50 [4] was 0.85 µM. The solubility [5] was “poor”.

In the case of NC(=O)c1ccc(-c2nc(-c3ccc4c(c3)OCO4)c(-c3ccccn3)[nH]2)cc1 [SB431542], the IC50 ([1]; Supplementary Fig. 1e, read-out: IC50 against NLK) is given as 1.07 µM, the “inhibition of NLK-mediated phosphorylation of NLK substrates NLK, c-Myb and Raptor” value [1] is given as 55% and the IC50 [4] is given as 9 µM.
